# Results published in US12653809B2, “Urea, amide, and substituted heteroaryl compounds for CBL-B inhibition” (Nurix Therapeutics, Inc., priority 2019, dated 2026).
# Like-named read-outs stand apart in the source and are kept apart here.
# Biological target: T1, Cbl-b (truncated variant, UniProt number Q13191) (Homo sapiens, UniProt Q13191)
# T1 construct: made in house
# Assay: Cbl-b activity assay (TR-FRET, interaction of Cbl-b with UbcH5B-Ub)
# Type: biochemical
# Source text: As described in Biological Example 1A, a Cbl-b activity assay (Cbl-b inhibition assay) used to measure the IC50 values for Cbl-b inhibition uses a mixture comprising candidate compound, Cbl-b (truncated, with an Avitag, and biotinylated), a fluorescently-labeled E2 enzyme UbcH5B labelled with ubiquitin conjugated to BODIPY-fluorescein (UbcH5B-Ub), streptavidin-terbium, and assay buffer. In one embodiment, the Cbl-b activity assay (Cbl-b inhibition assay) used to measure IC50 for inhibition of Cbl-b uses the conditions described in Biological Example 1A with 12 nM Cbl-b. […] In another embodiment, the Cbl-b activity assay (Cbl-b inhibition assay) used to measure IC50 for inhibition of Cbl-b uses the conditions described in Biological Example 1B, with candidate compound, 0.125 nM Cbl-b (truncated, with an avitag, and biotinylated), fluorescently labelled inhibitor probe, and assay buffer. Displacement of the inhibitor probe indicates Cbl-b activity.
# Candidate compounds isolated from screening assays were evaluated for their ability to bind and inhibit Cbl-b, an E3 ubiquitin-protein ligase.
# The ability of candidate compounds to inhibit Cbl-b activity was measured by monitoring the interaction of Cbl-b with UbcH5B-Ub in the presence of the candidate compound. A truncated variant of Cbl-b (UniProt number Q13191; SEQ ID NO:1) containing an Avitag at its N-terminus was co-expressed with BirA biotin ligase and purified using a standard protocol (see Dou et al., Nature Structural and Molecular Biology 8: 982-987, 2013; Avidity LLC).
# Fluorescently labeled UbcH5B-Ub was prepared by conjugating ubiquitin (Ub), labeled at its N-terminus with Bodipy-Fluorescein, to UbcH5B, an E2 enzyme, harboring a cysteine to lysine mutation at position 85. This mutation is similar to a mutation that was previously reported (see Dou et al., Nature Structural and Molecular Biology 8: 982-987, 2013). Cbl-b activity assays were performed in a 384-well plate at room temperature in a 10 μL reaction volume by pre-incubating 12 nM Cbl-b (final concentration) in an assay buffer containing 50 mM HEPES pH 7.0, 100 mM NaCl, 0.01% Triton X-100, 0.01% BSA, and 1 mM DTT in the presence of a candidate compound in 1% DMSO (final concentration, High Conditions) for one hour. After incubation in the presence of the candidate compound, the plate was incubated for an additional 1.5 hours in the presence of 60 nM Src kinase with 1 mM ATP and 5 mM MgCl2 (final concentrations). Alternatively, compounds were tested as described above with assay buffer containing 50 mM NaCl instead of 100 mM NaCl and 30 nM Src kinase instead of 60 nM Src kinase (Low Conditions). Src kinase was prepared as previously described (see Kobashigawa et al., Proc Natl Acad Sci USA, 108: 20579-20584, 2011). […] The plate was incubated for one hour. Following the one hour incubation, the plates were read for TR-FRET signal at 520/620 nm using Envision plate reader (Perkin Elmer). The presence of a FRET signal that indicated Cbl-b was not inhibited by the compound candidate. The absence of a FRET signal indicated Cbl-b was inhibited by the compound candidate and was therefore a Cbl-b inhibitor.
# The resulting data for the Cbl-b activity assays were analyzed using standard methods to report the IC50 values of the tested compounds (Tables 3-4). The resulting data for the Cbl-b binding assay was solvent corrected and double-referenced prior to analysis. All data were globally fit to a steady-state affinity and kinetic binding model where applicable. Compounds were ranked into bins A through D as follows for IC50: A indicates <0.1 μM, B indicates 0.1 μM≤IC50<1 μM, C indicates 1 μM≤IC50<5 μM, and D indicates 5 μM≤IC50.
# [1] = Biological Example 1A, low or high conditions not stated, read-out: IC50 values in the Cbl-b inhibition assay of Biological Example 1A
# [2] = high conditions: 100 mM NaCl, 60 nM Src kinase, 12 nM Cbl-b, read-out: Cbl-b activity IC50
# T1 sequence (Q13191 36-427): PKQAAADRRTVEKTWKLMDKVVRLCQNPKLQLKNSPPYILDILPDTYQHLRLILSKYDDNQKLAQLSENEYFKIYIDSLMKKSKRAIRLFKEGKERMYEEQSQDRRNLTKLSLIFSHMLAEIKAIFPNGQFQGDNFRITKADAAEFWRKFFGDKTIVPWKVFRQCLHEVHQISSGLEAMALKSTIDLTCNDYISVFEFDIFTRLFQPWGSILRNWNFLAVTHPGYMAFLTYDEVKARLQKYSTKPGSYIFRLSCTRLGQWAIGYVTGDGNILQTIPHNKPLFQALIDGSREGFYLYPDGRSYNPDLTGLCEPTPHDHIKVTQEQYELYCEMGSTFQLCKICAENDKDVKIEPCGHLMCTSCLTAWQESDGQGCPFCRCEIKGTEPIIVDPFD
SMILES,IC50 [1] [µM],IC50 [2] [µM]
"C[C@H](Sc1nncn1C)c1cccc(NC(=O)N2CCC23CCOC3)c1 (stereo partly drawn) [Example 130, N-(3-((S)-1-((4-methyl-4H-1,2,4-triazol-3-yl)thio)ethyl)phenyl)-6-oxa-1-azaspiro[3.4]octane-1-carboxamide]",–,≥ 5
"C[C@H](Sc1nncn1C)c1cccc(NC(=O)N2CCC3(CNC(=O)C3)C2)c1 (stereo partly drawn) [Example 139, N-(3-((S)-1-((4-methyl-4H-1,2,4-triazol-3-yl)thio)ethyl)phenyl)-8-oxo-2,7-diazaspiro[4.4]nonane-2-carboxamide]",–,≥ 5
"CC(=O)N1CCC2(CCN(C(=O)Nc3cccc([C@H](C)Sc4nncn4C)c3)CC2)C1 [Example 160, (S)-2-acetyl-N-(3-(1-((4-methyl-4H-1,2,4-triazol-3-yl)thio)ethyl)phenyl)-2,8-diazaspiro[4.5]decane-8-carboxamide]",–,≥ 5
"CNS(=O)(=O)c1cc(NC(=O)Nc2cccc([C@H](C)Sc3nncn3C)c2)ccc1C [Example 144, (S)—N,2-dimethyl-5-(3-(3-(1-((4-methyl-4H-1,2,4-triazol-3-yl)thio)ethyl)phenyl)ureido)benzenesulfonamide]",–,≥ 5
"C[C@H](Cc1nncn1C)c1cccc(-c2n[nH]c3c(N4CC[C@H](O)C4)cc(C(F)(F)F)nc23)c1 [Example 111, (S)-1-(3-(3-((R)-1-(4-methyl-4H-1,2,4-triazol-3-yl)propan-2-yl)phenyl)-5-(trifluoromethyl)-1H-pyrazolo[4,3-b]pyridin-7-yl)pyrrolidin-3-ol]",–,0.1 to 1
"Cc1ccc2[nH]nc(-c3cccc([C@H](C)Cc4nncn4C)c3)c2n1 [Example 119, (R)-5-methyl-3-(3-(1-(4-methyl-4H-1,2,4-triazol-3-yl)propan-2-yl)phenyl)-1H-pyrazolo [4,3-b]pyridine]",–,1 to 5
"Cn1cnnc1CC1(c2cccc(NC(=O)N3CC4(CCNCC4)c4cccnc43)c2)COC1 [Example 30, N-(3-(3-((4-methyl-4H-1,2,4-triazol-3-yl)methyl)oxetan-3-yl)phenyl)spiro[piperidine-4,3′-pyrrolo[2,3-b]pyridine]-1′(2′H)-carboxamide]",–,< 0.1
"C[C@H](Sc1nncn1C)c1cccc(NC(=O)N2CCOC(CC(F)(F)F)C2)c1 (stereo partly drawn) [Example 131, N-(3-((S)-1-((4-methyl-4H-1,2,4-triazol-3-yl)thio)ethyl)phenyl)-2-(2,2,2-trifluoroethyl)morpholine-4-carboxamide]",–,≥ 5
"CC(C)C1CN(C(=O)Nc2cccc([C@H](C)Sc3nncn3C)c2)CCO1 (stereo partly drawn) [Example 51, 2-isopropyl-N-(3-((S)-1-((4-methyl-4H-1,2,4-triazol-3-yl)thio)ethyl)phenyl)morpholine-4-carboxamide]",–,≥ 5
"C[C@H](Sc1nncn1C)c1cccc(NC(=O)N2CC3(CCC3O)C2)c1 (stereo partly drawn) [Example 133, 5-hydroxy-N-(3-((S)-1-((4-methyl-4H-1,2,4-triazol-3-yl)thio)ethyl)phenyl)-2-azaspiro[3.3]heptane-2-carboxamide]",–,≥ 5
"C[C@H](Cc1nncn1C)c1cccc(-c2n[nH]c3c(N4CC[C@@H](O)C4)cc(C(F)(F)F)nc23)c1 [Example 112, (R)-1-(3-(3-((R)-1-(4-methyl-4H-1,2,4-triazol-3-yl)propan-2-yl)phenyl)-5-(trifluoromethyl)-1H-pyrazolo[4,3-b]pyridin-7-yl)pyrrolidin-3-ol]",–,0.1 to 1
"C[C@H](Sc1nncn1C)c1cccc(NC(=O)N2CCC23CCN(C)CC3)c1 [Example 126, (S)-7-methyl-N-(3-(1-((4-methyl-4H-1,2,4-triazol-3-yl)thio)ethyl)phenyl)-1,7-diazaspiro[3.5]nonane-1-carboxamide]",–,≥ 5
"C[C@H](Sc1nncn1C)c1cccc(NC(=O)N2CCCc3ccccc32)c1 [Example 8, (S)—N-(3-(1-((4-methyl-4H-1,2,4-triazol-3-yl)thio)ethyl)phenyl)-3,4-dihydroquinoline-1(2H)-carboxamide]",–,≥ 5
"C[C@H](Sc1nncn1C)c1cccc(NC(=O)N2CC3CCCC3C2)c1 (stereo partly drawn) [Example 40, N-(3-((S)-1-((4-methyl-4H-1,2,4-triazol-3-yl)thio)ethyl)phenyl)hexahydrocyclopenta[c]pyrrole-2(1H)-carboxamide]",1 to 5,1 to 5
"CC(=O)N1CCN(C(=O)Nc2cccc([C@H](C)Sc3nncn3C)c2)CC1 [Example 162, (S)-4-acetyl-N-(3-(1-(4-methyl-4H-1,2,4-triazol-3-ylthio)ethyl)phenyl)piperazine-1-carboxamide]",–,≥ 5
"C[C@H](Sc1nncn1C)c1cccc(NC(=O)Nc2ccccc2)c1 [Example 6, (S)-1-(3-(1-((4-methyl-4H-1,2,4-triazol-3-yl)thio)ethyl)phenyl)-3-phenylurea]",–,≥ 5

# Next, values leading:
IC50 [1] [µM],IC50 [2] [µM],SMILES
1 to 5,1 to 5,"COc1cccc(-c2cc(-c3cccc(C(C)Sc4nncn4C)c3)[nH]n2)c1 (centres unmarked) [Example 104, 3-((1-(3-(3-(3-methoxyphenyl)-1H-pyrazol-5-yl)phenyl)ethyl)thio)-4-methyl-4H-1,2,4-triazole]"
–,0.1 to 1,"C[C@H](Cc1nncn1C)c1cccc(-c2cc(-c3ccccn3)n[nH]2)c1 [Example 105, (R)-2-(5-(3-(1-(4-methyl-4H-1,2,4-triazol-3-yl)propan-2-yl)phenyl)-1H-pyrazol-3-yl)pyridine]"
–,≥ 5,"COc1cccc(NC(=O)Nc2cccc([C@H](C)Sc3nncn3C)c2)n1 [Example 4, (S)-1-(6-methoxypyridin-2-yl)-3-(3-(1-((4-methyl-4H-1,2,4-triazol-3-yl)thio)ethyl)phenyl)urea]"
1 to 5,1 to 5,"C[C@H](Sc1nncn1C)c1cccc(-n2cc(-c3ccc(C(N)=O)cc3)nn2)c1 [Example 87, (S)-4-(1-(3-(1-(4-methyl-4H-1,2,4-triazol-3-ylthio)ethyl)phenyl)-1H-1,2,3-triazol-4-yl)benzamide]"
0.1 to 1,0.1 to 1,"C[C@H](Sc1nncn1C)c1cccc(-c2cc(-c3ccccc3)n[nH]2)c1 [Example 102, (S)-4-methyl-3-((1-(3-(3-phenyl-1H-pyrazol-5-yl)phenyl)ethyl)thio)-4H-1,2,4-triazole]"
≥ 5,≥ 5,"CC(Sc1nncn1C)c1ccnc(-c2cc(-c3ccccc3)no2)c1 (centres unmarked) [Example 71, 5-(4-(1-((4-methyl-4H-1,2,4-triazol-3-yl)thio)ethyl)pyridin-2-yl)-3-phenylisoxazole]"
–,1 to 5,"COc1cccc(-c2cnn(-c3cccc([C@H](C)Sc4nncn4C)c3)n2)c1 [Example 76, (S)-4-(3-methoxyphenyl)-2-(3-(1-((4-methyl-4H-1,2,4-triazol-3-yl)thio)ethyl)phenyl)-2H-1,2,3-triazole]"
1 to 5,1 to 5,"C[C@H](Sc1nncn1C)c1cccc(-n2cc(-c3cccc(C(N)=O)c3)nn2)c1 [Example 96, (S)-3-(1-(3-(1-(4-methyl-4H-1,2,4-triazol-3-ylthio)ethyl)phenyl)-1H-1,2,3-triazol-4-yl)benzamide]"
1 to 5,1 to 5,"CC(Sc1nncn1C)c1cccc(-c2cc(-c3cccc(C(F)(F)F)c3)no2)c1 (centres unmarked) [Example 69, 5-(3-(1-((4-methyl-4H-1,2,4-triazol-3-yl)thio)ethyl)phenyl)-3-(3-(trifluoromethyl)phenyl)isoxazole]"
